# Experimental data as given in patent publication US10058526B2, “Compositions containing pheromones for treating behavioural or medical problems linked to the stress of non-human mammals” (CEVA SANTE ANIMALE, priority 2014, dated 2018).
# Structures can show the parent of a compound that is named as a salt.
# Assay: Diffusion of solvents in a 5.6 W electric diffuser (Example 1)
# Format: physicochemical
# Details: 48 ml solvent, average per day over 30 days
# Description: 48 ml of solvent to be tested are placed in a 5.6 W electric diffuser. The amount of solvent diffused is measured for 30 days following plugging in of the diffuser, and the average diffusion of product per day is calculated and summarized in Table 1 below: […]
row,Compound,Diffusion of product [g/day]
1,CC(C)OC(=O)CCCCCCCCC(=O)OC(C)C [Diisopropyl sebacate],1
2,CC(C)CCCCCCOC(=O)CCCCCC(C)C [Isononyl isononanoate],2
3,CCCCCCCCCCCCCC(=O)OC(C)C [Isopropyl myristate],1
4,CO[C@H]1CO[C@H]2[C@@H]1OC[C@H]2OC [Isosorbide dimethyl ether],2
5,CC1COC(=O)O1 (stereo not shown) [Propylene carbonate],4
6,CCOC(=O)CC(O)(CC(=O)OCC)C(=O)OCC [Triethyl citrate],1
7,Glycofurol,0.5
